Experimental data reported in patent US10647690B2, “2,3-epoxy succinyl derivative, preparation method and use thereof” (Institute of Pharmacology and Toxicology Academy of …, priority 2016, dated 2020).
Where two headings read alike, the source gives them in different places.

Target: T1, Cathepsin K (Homo sapiens, UniProt P43235)
T1 construct: purchased Biovision K150-100
T1 sequence (P43235 115-329): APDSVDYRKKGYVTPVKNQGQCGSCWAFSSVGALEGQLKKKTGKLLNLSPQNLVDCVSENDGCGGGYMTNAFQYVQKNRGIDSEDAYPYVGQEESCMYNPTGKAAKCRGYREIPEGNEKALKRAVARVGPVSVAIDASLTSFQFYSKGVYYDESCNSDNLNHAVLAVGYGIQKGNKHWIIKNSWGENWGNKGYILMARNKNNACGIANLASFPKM
Assay: Preliminary screening of Cathepsin K (Cathepsin K Inhibitor Screening Kit K150-100, Biovision)
Format: biochemical
Details: relative inhibition rate vs 10 μM FF-FMK control; for Inhibition % (1 μM) replicate 1 / Inhibition % (1 μM) replicate 2 / inhibition at 1 µM: 1 μM compound; for Inhibition % (10 μM) replicate 1 / Inhibition % (10 μM) replicate 2 / inhibition at 10 µM: 10 μM compound
Method: 1. Method for preliminary screening of Cathepsin K:
Preliminary screening of Cathepsin K was performed by using Cathepsin K Inhibitor Screening Kit (Product No. K150-100) from Biovision Company.
1.1.1 Preparation of Cathepsin K enzyme solution: Cathepsin K enzyme (40 μl) and Cathepsin K reagent (80 μl) were added to Cathepsin K buffer (3.88 ml), and were mixed well, to prepare Cathepsin K enzyme solution with a volume of 4 ml, which was placed on ice for further use.
1.1.2 Preparation of a compound solution: different compounds were separately weighed and dissolved in DMSO (methyl sulfoxide), to prepare solutions at a concentration of 30 mM as stock solutions, and for some insoluble compounds, they were prepared into solutions at a concentration of 10 mM as stock solutions; the 30 mM and 10 mM compound stock solutions were diluted to 1 mM and 100 μM DMSO solutions, respectively; 1 mM and 100 μM compound DMSO solutions (2 μl) were separately added to CTSK buffer (18 μl), to prepare compound solutions at a final concentration of 100 μM and 10 μM, respectively, wherein the concentration of DMSO was 10%.
1.1.3 Preparation of Cathepsin K substrate solution: Cathepsin K substrate (160 μl) was added to Cathepsin K buffer (3.44 ml), and mixed homogeneously, to prepare Cathepsin K substrate solution with a volume of 3.6 ml, which was placed on ice for further use.
1.2 Method for screening Cathepsin K inhibitor: Cathepsin K enzyme solution (prepared in Item 1.1.1) was added to a 384-well plate (ProxiPlate-384 Plus, Perkinelmer) at 10 μl/well, and centrifuged at 1000 rpm for 1 min; the compound solution (prepared in Item 1.1.2) was then added at 2 µl/well, and centrifuged at 1000 rpm for 1 min, and every concentration was repeated in two wells; the plate was placed in a 25° C. incubator for 15 min; Cathepsin K substrate solution was then added at 8 μl/well, and centrifuged at 1000 rpm for 1 min; and finally, the fluorescence signal was read in Enspire, wherein the exciting light was at a wavelength of 400 nm, the emitting light was at a wavelength of 505 nm, and continuous reading was performed at 37° C. for 120 min.
1.3 Data analysis: the slope (S) for all the samples was calculated by ΔRFU (RFU2−RFU1) and time ΔT (T2−T1), including negative control (Enzyme Control, EC) and positive control (Inhibitor Control, IC: 10 μM FF-FMK), and the calculation formula was as followed: Relative inhibition rate %=(SEC−SS)/(SEC−SIC)*100.

[1] = replicate 1, read-out: Inhibition % (1 μM) replicate 1
[2] = replicate 2, read-out: Inhibition % (1 μM) replicate 2
[3] = replicate 1, read-out: Inhibition % (10 μM) replicate 1
[4] = replicate 2, read-out: Inhibition % (10 μM) replicate 2

## CCOC(=O)[C@H]1O[C@@H]1C(=O)N[C@@H](CCSC)C(=O)NCCC(C)C [Compound 1, (2s, 3s)-2-ethoxycarbonyl-3-[2-[(s)-4-methylthio-1-carbonyl-1-(isopentylamino)butane]formylamino]epoxysuccinic acid]
Replicate 1
  Inhibition % (1 μM) replicate 1: 17.79%
  Inhibition % (10 μM) replicate 1: 41.60%
Replicate 2
  Inhibition % (1 μM) replicate 2: 20.59%
  Inhibition % (10 μM) replicate 2: 47.08%

## CCCCCNC(=O)[C@H](CCSC)NC(=O)[C@H]1O[C@@H]1C(=O)OCC [Compound 2, (2s, 3s)-2-ethoxycarbonyl-3-[2-[(s)-4-methylthio-1-carbonyl-1-(pentylamino)butane]formylamino]epoxysuccinic acid]
[1]
  inhibition at 1 µM: 28.6%
[2]
  inhibition at 1 µM: 33.2%
[3]
  inhibition at 10 µM: 59.5%
[4]
  inhibition at 10 µM: 60%

## CCOC(=O)[C@H]1O[C@@H]1C(=O)N[C@@H](CCSC)C(=O)NCC(C)CC (stereo partly drawn) [Compound 3, (2s, 3s)-2-ethoxycarbonyl-3-[2-[(s)-4-methylthio-1-carbonyl-1-(2-methylbutylamino)butane]formylamino]epoxysuccinic acid]
[1]
  inhibition at 1 µM: 31%
[2]
  inhibition at 1 µM: 16.6%
[3]
  inhibition at 10 µM: 42%
[4]
  inhibition at 10 µM: 36.7%

## CCCNC(=O)[C@H](CCSC)NC(=O)[C@H]1O[C@@H]1C(=O)OCC [Compound 4, (2s, 3s)-2-ethoxycarbonyl-3-[2-[(s)-4-methylthio-1-carbonyl-1-(propylamino)butane]formylamino]epoxysuccinic acid]
[1]
  inhibition at 1 µM: 15.6%
[2]
  inhibition at 1 µM: 23.6%
[3]
  inhibition at 10 µM: 31.6%
[4]
  inhibition at 10 µM: 34.9%

## CCCC(C)NC(=O)[C@H](CCSC)NC(=O)[C@H]1O[C@@H]1C(=O)OCC (stereo partly drawn) [Compound 6, (2s, 3s)-2-ethoxycarbonyl-3-[2-[(s)-4-methylthio-1-carbonyl-1-(1-methylbutylamino)butane]formylamino]epoxysuccinic acid]
[1]
  inhibition at 1 µM: 31.6%
[2]
  inhibition at 1 µM: 36.6%
[3]
  inhibition at 10 µM: 33%
[4]
  inhibition at 10 µM: 39.1%

## CCOC(=O)[C@H]1O[C@@H]1C(=O)N[C@@H](CCSC)C(=O)N1CCCC(C)C1 (stereo partly drawn) [Compound 7, (2s, 3s)-2-ethoxycarbonyl-3-[2-[(s)-4-methylthio-1-carbonyl-1-(3-methylpiperidinyl)butane]formylamino]epoxysuccinic acid]
[1]
  inhibition at 1 µM: 33%
[2]
  inhibition at 1 µM: -19.6%
[3]
  inhibition at 10 µM: 37.4%
[4]
  inhibition at 10 µM: 28.4%

## CCOC(=O)[C@H]1O[C@@H]1C(=O)N[C@@H](CCSC)C(=O)NCC(C)C [Compound 9, (2s, 3s)-2-ethoxycarbonyl-3-[2-[(s)-4-methylthio-1-carbonyl-1-(isobutylamino)butane]formylamino]epoxysuccinic acid]
[1]
  inhibition at 1 µM: 25.6%
[2]
  inhibition at 1 µM: 18.1%
[3]
  inhibition at 10 µM: 29.2%
[4]
  inhibition at 10 µM: 28.8%

## CCOC(=O)[C@H]1O[C@@H]1C(=O)N[C@@H](CCSC)C(=O)NCCc1ccc(OC)cc1 [Compound 10, (2s, 3s)-2-ethoxycarbonyl-3-[2-[(s)-4-methylthio-1-carbonyl-1-(4-methoxyphenylethylamino)butane]formylamino]epoxysuccinic acid]
[1]
  inhibition at 1 µM: 33.1%
[2]
  inhibition at 1 µM: 35.8%
[3]
  inhibition at 10 µM: 80.2%
[4]
  inhibition at 10 µM: 66.5%

## CCOC(=O)[C@H]1O[C@@H]1C(=O)N[C@@H](CCSC)C(=O)N1CCCC1 [Compound 11, (2s, 3s)-2-ethoxycarbonyl-3-[2-[(s)-4-methylthio-1-carbonyl-1-(tetrahydropyrrolyl)butane]formylamino]epoxysuccinic acid]
[1]
  inhibition at 1 µM: 15.3%
[2]
  inhibition at 1 µM: -7.42%
[3]
  inhibition at 10 µM: 32%
[4]
  inhibition at 10 µM: 15.2%

## CCOC(=O)[C@H]1O[C@@H]1C(=O)N[C@@H](CCSC)C(=O)N1CCOCC1 [Compound 12, (2s, 3s)-2-ethoxycarbonyl-3-[2-[(s)-4-methylthio-1-carbonyl-1-(morpholinyl)butane]formylamino]epoxysuccinic id]
[1]
  inhibition at 1 µM: 15.4%
[2]
  inhibition at 1 µM: 26.6%
[3]
  inhibition at 10 µM: 44%
[4]
  inhibition at 10 µM: 51.7%

## CCOC(=O)[C@H]1O[C@@H]1C(=O)N[C@H](CSCc1ccccc1)C(=O)NCC(C)CC (stereo partly drawn) [Compound 14, (2s, 3s)-2-ethoxycarbonyl-3-[2-[(s)-3-benzylthio-1-carbonyl-1-(2-methylbutylamino)propane]formylamino]epoxysuccinic acid]
Replicate 1
  Inhibition % (1 μM) replicate 1: 31.16%
  Inhibition % (10 μM) replicate 1: 42.39%
Replicate 2
  Inhibition % (1 μM) replicate 2: −7.18%
  Inhibition % (10 μM) replicate 2: 41.33%

## CCOC(=O)[C@H]1O[C@@H]1C(=O)N[C@@H](CSCc1ccccc1)C(=O)NCC(C)(C)C [Compound 15, (2s, 3s)-2-ethoxycarbonyl-3-[2-[(s)-3-benzylthio-1-carbonyl-1-(neopentylamino)propane]formylamino]epoxysuccinic acid]
[1]
  inhibition at 1 µM: 28.1%
[2]
  inhibition at 1 µM: 35.6%
[3]
  inhibition at 10 µM: 50.1%
[4]
  inhibition at 10 µM: 48.6%

## CCOC(=O)[C@H]1O[C@@H]1C(=O)N[C@@H](CSCc1ccccc1)C(=O)NC(C)(C)CC [Compound 16, (2s, 3s)-2-ethoxycarbonyl-3-[2-[(s)-3-benzylthio-1-carbonyl-1-(tert-pentylamino)propane]formylamino]epoxysuccinic acid]
[1]
  inhibition at 1 µM: 38.9%
[2]
  inhibition at 1 µM: 39.2%
[3]
  inhibition at 10 µM: 60.8%
[4]
  inhibition at 10 µM: 63.6%

## CCCNC(=O)[C@H](CSCc1ccccc1)NC(=O)[C@H]1O[C@@H]1C(=O)OCC [Compound 17, (2s, 3s)-2-ethoxycarbonyl-3-[2-[(s)-3-benzylthio-1-carbonyl-1-(propylamino)propane]formylamino]epoxysuccinic acid]
[1]
  inhibition at 1 µM: 26.9%
[2]
  inhibition at 1 µM: 32.2%
[3]
  inhibition at 10 µM: 34.8%
[4]
  inhibition at 10 µM: 31.7%

## CCCCCCNC(=O)[C@H](CSCc1ccccc1)NC(=O)[C@H]1O[C@@H]1C(=O)OCC [Compound 18, (2s, 3s)-2-ethoxycarbonyl-3-[2-[(s)-3-benzylthio-1-carbonyl-1-(hexylamino)propane]formylamino]epoxysuccinic acid]
[1]
  inhibition at 1 µM: 23.5%
[2]
  inhibition at 1 µM: 32.7%
[3]
  inhibition at 10 µM: 56.1%
[4]
  inhibition at 10 µM: 48.2%

## CCOC(=O)[C@H]1O[C@@H]1C(=O)N[C@@H](CSCc1ccccc1)C(=O)NC(C)CC (stereo partly drawn) [Compound 19, (2s, 3s)-2-ethoxycarbonyl-3-[2-[(s)-3-benzylthio-1-carbonyl-1-(1-methylpropylamino)propane]formylamino]epoxysuccinic acid]
[1]
  inhibition at 1 µM: 32%
[2]
  inhibition at 1 µM: 20.4%
[3]
  inhibition at 10 µM: 33.5%
[4]
  inhibition at 10 µM: 27.9%

## CCOC(=O)[C@H]1O[C@@H]1C(=O)N[C@@H](CSCc1ccccc1)C(=O)NCCCCc1ccccc1 [Compound 20, (2s, 3s)-2-ethoxycarbonyl-3-[2-[(s)-3-benzylthio-1-carbonyl-1-(4-phenylbutylamino)propane]formylamino]epoxysuccinic acid]
[1]
  inhibition at 1 µM: 30.2%
[2]
  inhibition at 1 µM: 37%
[3]
  inhibition at 10 µM: 36.3%
[4]
  inhibition at 10 µM: 50.4%

## CCOC(=O)[C@H]1O[C@@H]1C(=O)N[C@@H](CSCc1ccccc1)C(=O)NCCc1ccc(C)cc1 [Compound 21, (2s, 3s)-2-ethoxycarbonyl-3-[2-[(s)-3-benzylthio-1-carbonyl-1-(p-methylphenylethylamino)propane]formylamino]epoxysuccinic acid]
[1]
  inhibition at 1 µM: 33.1%
[2]
  inhibition at 1 µM: 29.9%
[3]
  inhibition at 10 µM: 67.2%
[4]
  inhibition at 10 µM: 53%
